Measured values reported in ChEMBL document CHEMBL5244240, “MmpL3 inhibitors as antituberculosis drugs” (Eur J Med Chem, 2020).
Converted amounts (≈) assume the structure as drawn.

Assays:
[1] = tested on: Mycobacterium tuberculosis; test: Antitubercular activity against Mycobacterium tuberculosis H37Rv; assay type: functional
[2] = Clearance in mouse microsomes; assay type: ADME, Microsome
[3] = tested on: Mycobacteroides abscessus; test: Antimycobacterial activity against Mycobacterium abscessus smooth variant; assay type: functional
[4] = tested on: Mycobacteroides abscessus; test: Antimycobacterial activity against Mycobacterium abscessus rough variant; assay type: functional
[5] = Elimination half life in mouse at 25 mg/kg, po; assay type: ADME, organism-based; details: in vivo, read-out: beta t1/2 (converted)
[6] = Clearance in mouse at 25 mg/kg, po; assay type: ADME, organism-based; details: in vivo
[7] = Tmax in mouse at 25 mg/kg, po; assay type: ADME, organism-based; details: in vivo
[8] = Volume of distribution at steady state in mouse at 25 mg/kg, po; assay type: ADME, organism-based; details: in vivo
[9] = tested on: Mycobacterium tuberculosis; test: Antitubercular activity against replicating Mycobacterium tuberculosis bacilli; assay type: functional
[10] = tested on: Mycobacterium tuberculosis; test: Antitubercular activity against non replicating Mycobacterium tuberculosis bacilli by low oxygen recovery assay; assay type: functional
[11] = tested on: Mycobacteroides abscessus; test: Antitubercular activity against Mycobacterium abscessus CIP104536; assay type: functional
[12] = tested on: Mycobacterium tuberculosis; test: Antitubercular activity against Mycobacterium tuberculosis H37Rv infected in mouse assessed as log reduction in CFU in lung at 50 mg/kg; assay type: functional
[13] = tested on: Mycobacterium tuberculosis; test: Antitubercular activity against Mycobacterium tuberculosis H37Rv infected in mouse assessed as log reduction in CFU in lung at 100 mg/kg; assay type: functional
[14] = tested on: Mycobacterium tuberculosis; test: Antitubercular activity against Mycobacterium tuberculosis infected in mouse assessed as log reduction in bacterial burden in lung at 300 mg/kg; assay type: functional
[15] = tested on: Mycobacterium tuberculosis; test: Antitubercular activity against Mycobacterium tuberculosis infected in mouse assessed as log reduction in bacterial burden in lung at 100 mg/kg; assay type: functional
[16] = tested on: Mycobacterium tuberculosis; test: Antitubercular activity against Mycobacterium tuberculosis […]; assay type: functional
[17] = tested on: Mycobacterium tuberculosis; test: Antitubercular activity against Mycobacterium tuberculosis H37Rv infected in mouse macrophage; assay type: functional
[18] = tested on: Mycobacterium tuberculosis; test: Bactericidal activity against replicating Mycobacterium tuberculosis H37Rv; assay type: functional
[19] = tested on: Mycobacterium tuberculosis; test: Antitubercular activity against replicating Mycobacterium tuberculosis H37Rv; assay type: functional
[20] = tested on: Mycobacterium tuberculosis; test: Antitubercular activity against non-replicating Mycobacterium tuberculosis H37Rv; assay type: functional

COc1ccc(-c2cc(CN3CCSCC3)c(C)n2-c2ccc(F)cc2)cc1
MIC [1]: 0.2 µM
CLH [2]: 18.76 mL/min/g

Cc1ccccc1CN1CCC(O)(c2ccc(Cl)c(C(F)(F)F)c2)CC1
MIC [3]: 0.32 µM (≈ 0.123 µg/mL)
MIC [4]: 0.32 µM (≈ 0.123 µg/mL)

c1cc2c(s1)CCOC21CCN(Cc2ccc3c(c2)OCCO3)CC1
MIC [1]: 0.3 µM
CLH [2]: > 30 mL/min/g

CC1(C)CCC(NC(=O)c2cc3c(F)cc(F)cc3[nH]2)CC1
half-life [5]: 4.47 h
CL/F [6]: 18.7 mL/min/kg
Tmax [7]: 1.5 h
Vdss [8]: 2.24 L/kg

CC1(C)CCC(NC(=O)c2cc3c(Cl)cc(Cl)cc3[nH]2)CC1
half-life [5]: 5.25 h
CL/F [6]: 18.1 mL/min/kg
Tmax [7]: 1.5 h
Vdss [8]: 4.11 L/kg

Cc1c(CN2CCN(C)CC2)cc(-c2ccc(Cl)cc2)n1-c1ccc(Cl)cc1
MIC [9]: 5 µM (≈ 2.07 µg/mL)
MIC [10]: 18.5 µM (≈ 7.67 µg/mL)

Cc1cc2nc(CCC3CCCCC3)[nH]c2cc1C
MIC [11]: 0.125 µg/mL (≈ 0.488 µM)
MIC [1]: 0.75 µg/mL

CCCn1cnc2cc(NCc3ccc(Cl)cc3Cl)ccc21
IC90 [1]: 16 µM

Cc1c(CN2CCOCC2)cc(-c2ccc(C(C)C)cc2)n1-c1ccc(F)cc1
MIC [1]: 0.12 µM
CLH [2]: 1.4 mL/min/g

FC(F)(F)Oc1ccc(Oc2ccc(CN3CCC4(CC3)OCCc3sccc34)cc2)cc1
log(activity) [12]: 2.3
MIC [1]: 0.06 µM
CLH [2]: 1.2 mL/min/g
log(activity) [13]: 2.7

CCc1ccc([C@H]2C[C@@H](C(F)(F)F)n3ncc(C(=O)NCc4ccc5c(c4)OCO5)c3N2)cc1
log(activity) [14]: 2.2
MIC [1]: 0.16 µM
log(activity) [15]: 1.5

O=C(NCCc1ccc(Cl)cc1)C1(c2cccs2)CCCCC1
MIC99 [16]: 19.3 µM (≈ 6.71 µg/mL)

CCc1ccc([C@H]2C[C@@H](C(F)(F)F)n3ncc(C(=O)NCc4ccc(OC)cc4)c3N2)cc1
MIC80 [17]: 0.16 µM (≈ 0.0734 µg/mL)
MIC [1]: 0.3 µM

FC(F)(F)Oc1ccc(Oc2ccc(CNCCNC3C4CC5CC(C4)CC3C5)cc2)cc1 (stereo not given)
MBC99 [18]: 5 µM (≈ 2.3 µg/mL)
MIC99 [19]: 2.5 µM (≈ 1.15 µg/mL)

CC(C)=CCC/C(C)=C\CNCCNC1C2CC3CC(C2)CC1C3 (stereo not given)
MIC [19]: 0.7 µM (≈ 0.231 µg/mL)
MIC [20]: 0.7 µM (≈ 0.231 µg/mL)
